Laboratory results as given in patent publication US20220062243A1, “P14-Kinase Inhibitors with Anti-Cancer Activity” (The Board of Trustees of the Leland Stanford Junior …, priority 2019, published 2022).

target: PI4KIIIα (Homo sapiens, UniProt P42356); assay: not given; conditions: weak inhibition; cited from earlier work
Sequence (P42356 whole entry): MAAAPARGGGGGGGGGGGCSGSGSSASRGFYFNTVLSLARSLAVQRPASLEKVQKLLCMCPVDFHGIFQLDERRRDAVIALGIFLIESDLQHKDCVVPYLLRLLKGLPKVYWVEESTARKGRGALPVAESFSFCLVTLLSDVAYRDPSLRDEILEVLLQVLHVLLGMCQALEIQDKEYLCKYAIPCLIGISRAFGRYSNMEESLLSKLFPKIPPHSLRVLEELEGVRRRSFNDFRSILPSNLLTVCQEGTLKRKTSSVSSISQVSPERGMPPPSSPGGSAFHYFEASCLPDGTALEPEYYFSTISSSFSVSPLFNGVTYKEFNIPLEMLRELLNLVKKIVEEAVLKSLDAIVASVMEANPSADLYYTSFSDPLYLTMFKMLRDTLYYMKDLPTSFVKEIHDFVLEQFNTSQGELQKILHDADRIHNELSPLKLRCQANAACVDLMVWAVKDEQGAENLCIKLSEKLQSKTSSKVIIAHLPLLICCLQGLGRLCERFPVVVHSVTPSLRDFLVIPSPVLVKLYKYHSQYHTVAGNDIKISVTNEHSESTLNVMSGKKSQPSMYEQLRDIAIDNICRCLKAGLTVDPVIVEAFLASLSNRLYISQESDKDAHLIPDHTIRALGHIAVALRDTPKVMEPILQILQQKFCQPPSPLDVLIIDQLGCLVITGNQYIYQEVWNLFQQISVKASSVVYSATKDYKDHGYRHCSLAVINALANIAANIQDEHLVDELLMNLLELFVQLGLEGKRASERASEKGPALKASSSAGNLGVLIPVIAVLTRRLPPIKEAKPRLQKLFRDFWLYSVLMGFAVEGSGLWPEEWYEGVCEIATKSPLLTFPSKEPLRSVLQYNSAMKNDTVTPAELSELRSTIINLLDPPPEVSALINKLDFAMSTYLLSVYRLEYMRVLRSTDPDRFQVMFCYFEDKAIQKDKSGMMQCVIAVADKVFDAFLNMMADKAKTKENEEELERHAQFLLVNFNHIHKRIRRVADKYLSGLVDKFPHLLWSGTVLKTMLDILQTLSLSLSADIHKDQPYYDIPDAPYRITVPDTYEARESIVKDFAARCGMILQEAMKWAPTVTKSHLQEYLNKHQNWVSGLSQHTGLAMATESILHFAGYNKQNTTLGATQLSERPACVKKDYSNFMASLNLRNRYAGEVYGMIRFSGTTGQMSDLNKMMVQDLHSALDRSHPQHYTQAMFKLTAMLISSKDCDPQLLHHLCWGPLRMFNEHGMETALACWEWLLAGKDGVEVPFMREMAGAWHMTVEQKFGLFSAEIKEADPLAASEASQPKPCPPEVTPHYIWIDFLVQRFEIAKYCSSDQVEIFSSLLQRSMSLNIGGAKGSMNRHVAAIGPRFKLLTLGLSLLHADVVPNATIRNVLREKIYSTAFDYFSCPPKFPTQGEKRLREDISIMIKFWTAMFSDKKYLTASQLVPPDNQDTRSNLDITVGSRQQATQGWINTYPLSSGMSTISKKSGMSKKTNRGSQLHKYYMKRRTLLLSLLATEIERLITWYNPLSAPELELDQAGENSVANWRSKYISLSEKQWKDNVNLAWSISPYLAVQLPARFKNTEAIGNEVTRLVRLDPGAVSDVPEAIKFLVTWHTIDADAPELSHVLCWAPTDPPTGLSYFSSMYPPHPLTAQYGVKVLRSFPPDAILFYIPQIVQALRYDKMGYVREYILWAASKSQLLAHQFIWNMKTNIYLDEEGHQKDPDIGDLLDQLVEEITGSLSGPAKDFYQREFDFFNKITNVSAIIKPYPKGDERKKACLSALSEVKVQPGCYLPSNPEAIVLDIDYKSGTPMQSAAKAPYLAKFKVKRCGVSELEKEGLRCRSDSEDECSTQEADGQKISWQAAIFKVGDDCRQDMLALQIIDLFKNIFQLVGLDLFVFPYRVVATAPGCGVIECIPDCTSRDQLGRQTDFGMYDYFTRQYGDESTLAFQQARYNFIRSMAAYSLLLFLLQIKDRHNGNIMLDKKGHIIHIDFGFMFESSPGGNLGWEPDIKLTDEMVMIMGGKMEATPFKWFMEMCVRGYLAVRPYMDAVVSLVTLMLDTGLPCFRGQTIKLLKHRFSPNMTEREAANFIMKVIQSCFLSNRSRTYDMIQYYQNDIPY

| Compound | IC50 |
| --- | --- |
| COc1ccc(-c2sc(NC(=O)C(C)(C)C)nc2C)cc1S(=O)(=O)Nc1ccc(O)cc1 [PI4KIIIbeta-IN-10] | ~3000 nM |

target: PI4K-IIIβ (Homo sapiens, UniProt Q9UBF8); assay: PI-kinase assay (membrane capture assay for lipid kinase activity), PI4KIIIβ; assay type: biochemical; conditions: read-out: PI4KIIIβ kinase activity (IC50 class)
Protocol: PI4-kinase inhibition can be determined by a kinase activity assay, e.g., by an assay that determines the level of incorporation of radiolabeled phosphate from [γ-^32P]-ATP into a substrate molecule after treatment with a subject compound, relative to a control, by measuring the beta-particle emission rate using a scintillation counter or phosphorimaging.
PI-kinase assay: Compounds are tested in C.1.1. PI kinase assays as described by Shokat et al., “A membrane capture assay for lipid kinase activity.” Nat. Protoc. […] Selected compounds of Table 1 and 2 were prepared and tested for inhibition activity in a variety of kinase assays.

Chain of PI4K-IIIβ (Q9UBF8 whole entry): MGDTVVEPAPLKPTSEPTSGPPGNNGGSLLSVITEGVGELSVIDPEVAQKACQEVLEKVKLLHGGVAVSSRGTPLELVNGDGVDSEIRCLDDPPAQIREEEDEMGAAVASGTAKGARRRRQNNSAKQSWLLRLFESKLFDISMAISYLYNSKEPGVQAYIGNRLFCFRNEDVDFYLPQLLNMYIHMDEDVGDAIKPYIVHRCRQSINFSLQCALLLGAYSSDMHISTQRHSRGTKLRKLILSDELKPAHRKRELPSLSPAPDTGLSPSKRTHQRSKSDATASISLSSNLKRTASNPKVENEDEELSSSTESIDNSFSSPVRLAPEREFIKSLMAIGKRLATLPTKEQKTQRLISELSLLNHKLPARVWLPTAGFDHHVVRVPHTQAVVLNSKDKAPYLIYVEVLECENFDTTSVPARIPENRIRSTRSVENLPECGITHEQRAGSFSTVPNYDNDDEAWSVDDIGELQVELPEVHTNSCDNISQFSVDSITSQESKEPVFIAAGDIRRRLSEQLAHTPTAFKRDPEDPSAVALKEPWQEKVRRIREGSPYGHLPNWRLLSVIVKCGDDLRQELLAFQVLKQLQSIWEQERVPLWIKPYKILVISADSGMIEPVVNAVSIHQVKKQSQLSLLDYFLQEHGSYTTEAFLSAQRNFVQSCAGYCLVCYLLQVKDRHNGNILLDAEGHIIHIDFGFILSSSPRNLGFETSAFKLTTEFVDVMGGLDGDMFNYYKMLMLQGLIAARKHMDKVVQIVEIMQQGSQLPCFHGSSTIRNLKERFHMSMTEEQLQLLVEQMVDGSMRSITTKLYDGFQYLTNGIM

| Compound | IC50 |
| --- | --- |
| COc1ccc(-c2sc(NC(=O)CC3CCOCC3)nc2C)cc1S(=O)(=O)Nc1cc(C)cc(O)c1 [Compound S-169, N-[5-[3-[(3-hydroxy-5-methyl-phenyl)sulfamoyl]-4-methoxy-phenyl]-4-methyl-thiazol-2-yl]-2-tetrahydropyran-4-yl-acetamide] | < 100 nM |
| COc1ccc(-c2sc(NC(C)(C)C)nc2C)cc1S(=O)(=O)NC1CCNCC1 [Compound S-219, 5-[2-(tert-butylamino)-4-methyl-thiazol-5-yl]-2-methoxy-N-(4-piperidyl)benzenesulfonamide] | < 100 nM |
| COc1ccc(-c2sc(NCC3CCCCC3)nc2C)cc1S(=O)(=O)NC1CCNCC1 [Compound S-123, 5-[2-(cyclohexylmethylamino)-4-methyl-thiazol-5-yl]-2-methoxy-N-(4-piperidyl)benzenesulfonamide] | < 100 nM |
| COc1ccc(-c2sc(NCC3CCCCC3)nc2C)cc1S(=O)(=O)NCC1CCCCC1 [Compound S-128, N-(cyclohexylmethyl)-5-[2-(cyclohexylmethylamino)-4-methyl-thiazol-5-yl]-2-methoxy-benzenesulfonamide] | 100 to 1000 nM |
| COc1ccc(-c2sc(NCC(C)C)nc2C)cc1S(=O)(=O)N[C@H]1CC[C@@H](O)CC1 [Compound S-222, N-(4-hydroxycyclohexyl)-5-[2-(isobutylamino)-4-methyl-thiazol-5-yl]-2-methoxy-benzenesulfonamide] | < 100 nM |
| COc1ccc(-c2sc(NC(=O)CC3CCOCC3)nc2C)cc1S(=O)(=O)Nc1ccc(O)cc1C [Compound S-231, N-[5-[3-[(4-hydroxy-2-methyl-phenyl)sulfamoyl]-4-methoxy-phenyl]-4-methyl-thiazol-2-yl]-2-tetrahydropyran-4-yl-acetamide] | < 100 nM |
| COc1ncc(-c2sc(NC(=O)CC3CCOCC3)nc2C)cc1S(=O)(=O)Nc1ccc(O)cc1 [Compound S-261] | < 100 nM |
| COc1ccc(-c2sc(NC(=O)CC3CCCC3)nc2C)cc1S(=O)(=O)N[C@H]1CC[C@H](O)CC1 [Compound S-151, 2-cyclopentyl-N-[5-[3-[(4-hydroxycyclohexyl)sulfamoyl]-4-methoxy-phenyl]-4-methyl-thiazol-2-yl]acetamide] | < 100 nM |
| COc1ccc(-c2sc(NCCC3CCCCC3)nc2C)cc1S(=O)(=O)NC1CCC(O)C1 (centres unmarked) [Compound S-214, 5-[2-(2-cyclohexylethylamino)-4-methyl-thiazol-5-yl]-N-(3-hydroxycyclopentyl)-2-methoxy-benzenesulfonamide] | 100 to 1000 nM |
| COc1ccc(-c2sc(NC(=O)CC3CCOCC3)nc2C)cc1S(=O)(=O)Nc1ccc(O)cc1 [Compound S-227, N-[5-[3-[(4-hydroxyphenyl)sulfamoyl]-4-methoxy-phenyl]-4-methyl-thiazol-2-yl]-2-tetrahydropyran-4-yl-acetamide] | < 100 nM |
| COc1ccc(-c2sc(NCC3CCCCC3)nc2C)cc1S(=O)(=O)NC1CCN(C(C)C)CC1 [Compound S-134, 5-[2-(cyclohexylmethylamino)-4-methyl-thiazol-5-yl]-N-(1-isopropyl-4-piperidyl)-2-methoxy-benzenesulfonamide] | < 100 nM |
| COc1ccc(-c2sc(NC(=O)CC3CCCC3)nc2C)cc1S(=O)(=O)Nc1ccc(O)cc1 [Compound S-1, 2-cyclopentyl-N-[5-[3-[(4-hydroxyphenyl)sulfamoyl]-4-methoxy-phenyl]-4-methyl-thiazol-2-yl]acetamide] | < 100 nM |
| COc1ccc(-c2sc(NC(=O)CC3CCOCC3)nc2C)cc1S(=O)(=O)Nc1ccc(F)cc1 [Compound S-170, N-[5-[3-[(4-fluorophenyl)sulfamoyl]-4-methoxy-phenyl]-4-methyl-thiazol-2-yl]-2-tetrahydropyran-4-yl-acetamide] | < 100 nM |
| COc1ccc(-c2sc(N[C@H](C)C3CCCCC3)nc2C)cc1S(=O)(=O)N[C@H]1CC[C@H](O)CC1 [Compound S-193, 5-[2-[[(1R)-1-cyclohexylethyl]amino]-4-methyl-thiazol-5-yl]-N-(4-hydroxycyclohexyl)-2-methoxy-benzenesulfonamide] | < 100 nM |
| COc1ccc(-c2sc(NC(=O)CC3CCCC3)nc2C)cc1S(=O)(=O)N1CC[C@@H](O)C1 [Compound S-153, 2-cyclopentyl-N-[5-[3-[(3R)-3-hydroxypyrrolidin-1-yl]sulfonyl-4-methoxy-phenyl]-4-methyl-thiazol-2-yl]acetamide] | < 100 nM |
| COc1ncc(-c2sc(NC(=O)CC3CCOCC3)nc2C)cc1S(=O)(=O)NC1CCCC(O)C1 (centres unmarked) [Compound S-263] | < 100 nM |
